Reference: US20260035365A1, “1H-PYRROLO[3,2-B]PYRIDINE DERIVATIVES AS IRREVERSIBLE INHIBITORS OF MUTANT EGFR FOR THE TREATMENT OF CANCER” (Bayer Aktiengesellschaft, priority 2022, published 2026)

Tests used:
[1] = molecular target: mutEGFR (D770_N771insSVD) (Homo sapiens, UniProt P00533, INS767SVD); assay: Exon20-mutant-EGFR (D770_N771insSVD) TR-FRET kinase assay; format: biochemical; settings: 2 mM ATP, 15 min preincubation
Outline: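 GST-fused human EGFR fragment R669-A1210 carrying the SVD insertion, Sf9-expressed, typically 15 pg/μl, was preincubated with compound for 15 min at 22° C in pH 7.0 Hepes/MgCl2 buffer. Phosphorylation was read by HTRF (665/620 nm ratio), normalised to no-inhibitor and no-enzyme controls.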

[2] = molecular target: mutEGFR (D770_N771insNPG, T790); assay: mutEGFR (D770_N771insNPG, T790) kinase assay; format: biochemical, human
BA/F3 (insSVD) cells = assay: Ba/F3 cell survival assay (Cell Titer-Glo), EGFR-insSVD; format: cell-based; settings: Mus musculus, BaF3, 48 h, without IL-3, with EGF
Outline: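 Ba/F3 cells stably expressing EGFR-insSVD or insSVD T790M via retrovirus (puromycin-selected), switched from IL-3 to 10 ng/mL EGF for 2 days, then plated at 4000 cells/well. Compound added by 100 nL pin transfer; 48 h at 37° C. Viability by CellTiter-Glo luminescence.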

mutEGFR (D770_N771insNPG, T790), sequence (P00533 with tags, fused parts or gaps INS770NPG limits assumed): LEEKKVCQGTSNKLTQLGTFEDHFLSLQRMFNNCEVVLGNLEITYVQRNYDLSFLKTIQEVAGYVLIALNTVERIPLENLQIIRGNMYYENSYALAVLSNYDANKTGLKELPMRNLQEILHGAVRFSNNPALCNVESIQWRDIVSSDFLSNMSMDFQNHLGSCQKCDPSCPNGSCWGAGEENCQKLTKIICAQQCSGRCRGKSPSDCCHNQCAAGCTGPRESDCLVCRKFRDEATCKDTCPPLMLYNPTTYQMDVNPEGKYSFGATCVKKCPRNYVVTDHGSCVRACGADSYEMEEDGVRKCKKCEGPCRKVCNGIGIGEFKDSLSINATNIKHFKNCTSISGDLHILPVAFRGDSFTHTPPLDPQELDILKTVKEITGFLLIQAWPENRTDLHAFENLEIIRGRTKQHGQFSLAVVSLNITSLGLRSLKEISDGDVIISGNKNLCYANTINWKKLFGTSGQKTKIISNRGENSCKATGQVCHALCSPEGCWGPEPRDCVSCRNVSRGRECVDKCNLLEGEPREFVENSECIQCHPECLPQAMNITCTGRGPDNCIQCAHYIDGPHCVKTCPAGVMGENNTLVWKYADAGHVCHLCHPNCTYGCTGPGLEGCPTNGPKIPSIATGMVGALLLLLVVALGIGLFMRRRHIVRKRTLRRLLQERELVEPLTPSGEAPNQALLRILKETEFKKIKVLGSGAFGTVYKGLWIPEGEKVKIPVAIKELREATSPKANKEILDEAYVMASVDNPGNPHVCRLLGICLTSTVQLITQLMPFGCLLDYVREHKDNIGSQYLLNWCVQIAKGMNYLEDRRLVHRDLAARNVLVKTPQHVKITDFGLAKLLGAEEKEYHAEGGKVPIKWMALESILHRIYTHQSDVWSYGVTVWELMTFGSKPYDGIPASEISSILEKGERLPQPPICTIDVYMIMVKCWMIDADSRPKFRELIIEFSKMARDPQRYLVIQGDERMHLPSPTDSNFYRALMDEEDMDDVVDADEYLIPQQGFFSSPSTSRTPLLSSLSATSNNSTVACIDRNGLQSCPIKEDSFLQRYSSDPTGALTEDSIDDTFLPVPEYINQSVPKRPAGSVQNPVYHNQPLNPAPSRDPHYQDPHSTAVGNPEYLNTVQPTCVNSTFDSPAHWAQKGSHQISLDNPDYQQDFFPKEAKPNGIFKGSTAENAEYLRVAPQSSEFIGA
mutEGFR (D770_N771insSVD), sequence (P00533 with tags, fused parts or gaps INS767SVD limits assumed): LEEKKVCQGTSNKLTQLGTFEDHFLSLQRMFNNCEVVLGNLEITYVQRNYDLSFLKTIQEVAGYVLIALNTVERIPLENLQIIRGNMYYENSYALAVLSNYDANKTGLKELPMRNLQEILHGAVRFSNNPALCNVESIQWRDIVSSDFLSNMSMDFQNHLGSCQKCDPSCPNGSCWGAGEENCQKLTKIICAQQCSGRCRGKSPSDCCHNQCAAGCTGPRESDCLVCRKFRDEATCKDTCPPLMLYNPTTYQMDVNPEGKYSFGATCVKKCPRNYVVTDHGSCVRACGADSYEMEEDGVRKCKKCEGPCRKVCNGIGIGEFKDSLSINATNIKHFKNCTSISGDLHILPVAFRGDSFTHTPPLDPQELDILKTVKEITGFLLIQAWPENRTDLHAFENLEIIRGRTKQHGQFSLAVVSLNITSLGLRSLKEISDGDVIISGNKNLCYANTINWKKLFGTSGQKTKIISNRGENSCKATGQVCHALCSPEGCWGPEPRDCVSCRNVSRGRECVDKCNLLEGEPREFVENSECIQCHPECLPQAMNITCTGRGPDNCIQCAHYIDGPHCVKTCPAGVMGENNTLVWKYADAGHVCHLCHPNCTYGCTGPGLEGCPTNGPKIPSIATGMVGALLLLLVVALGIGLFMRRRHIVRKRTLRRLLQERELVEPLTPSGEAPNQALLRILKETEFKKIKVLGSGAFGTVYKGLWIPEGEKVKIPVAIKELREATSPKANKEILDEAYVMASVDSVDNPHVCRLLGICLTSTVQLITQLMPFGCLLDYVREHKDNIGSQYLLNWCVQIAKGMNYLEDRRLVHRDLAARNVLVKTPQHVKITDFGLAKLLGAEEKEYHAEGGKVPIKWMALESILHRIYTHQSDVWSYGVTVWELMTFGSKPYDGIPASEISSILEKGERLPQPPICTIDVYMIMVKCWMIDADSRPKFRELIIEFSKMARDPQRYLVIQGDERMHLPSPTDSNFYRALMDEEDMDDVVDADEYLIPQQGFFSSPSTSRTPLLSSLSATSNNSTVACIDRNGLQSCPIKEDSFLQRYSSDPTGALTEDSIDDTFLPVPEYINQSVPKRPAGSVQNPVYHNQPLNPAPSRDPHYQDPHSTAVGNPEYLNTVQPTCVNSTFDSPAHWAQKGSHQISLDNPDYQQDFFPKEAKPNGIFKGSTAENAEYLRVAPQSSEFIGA

SMILES | IC50 [1] [nM] | IC50 [2] [nM] | IC50 (BA/F3 (insSVD) cells) [nM]
C=C(F)C(=O)N1CCC[C@H]1COc1cnccc1-c1[nH]c2cccnc2c1-c1ccccc1 [Example 91, 2-fluoro-1-[(2S)-2-({[4-(3-phenyl-1H-pyrrolo[3,2-b]pyridin-2-yl)pyridin-3-yl]oxy}methyl)pyrrolidin-1-yl]prop-2-en-1-one] | 77.3 | 769 | 1470
C=CS(=O)(=O)N(C)CCOc1cnccc1-c1[nH]c2cccnc2c1-c1ccccc1CC [Example 72, N-[2-({4-[3-(2-ethylphenyl)-1H-pyrrolo[3,2-b]pyridin-2-yl]pyridin-3-yl}oxy)ethyl]-N-methylethenesulfonamide] | 5.82 | 78.8 | 463
C=CC(=O)N1CC(F)(F)C[C@H]1COc1cnccc1-c1[nH]c2cccnc2c1-c1ccccc1 [Example 112, 1-[(2S)-4,4-difluoro-2-({[4-(3-phenyl-1H-pyrrolo[3,2-b]pyridin-2-yl)pyridin-3-yl]oxy}methyl)pyrrolidin-1-yl]prop-2-en-1-one] | 0.215 | 0.979 | 17.5
C=CC(=O)N1CCC[C@H]1COc1cnccc1-c1[nH]c2cccnc2c1-c1cc(C)ccc1F [Example 77, 1-{(2S)-2-[({4-[3-(2-fluoro-5-methylphenyl)-1H-pyrrolo[3,2-b]pyridin-2-yl]pyridin-3-yl}oxy)methyl]pyrrolidin-1-yl}prop-2-en-1-one] | 0.853 | 1.97 | 27.4
C=CS(=O)(=O)N1CCC1(C)COc1cnccc1-c1[nH]c2cccnc2c1-c1cccc(C(F)(F)F)c1 (racemic) [Example 148, 2-(3-{[(2RS)-1-(ethenesulfonyl)-2-methylazetidin-2-yl]methoxy}pyridin-4-yl)-3-[3-(trifluoromethyl)phenyl]-1H-pyrrolo[3,2-b]pyridine] | 105 | 627 | 2780
C=CS(=O)(=O)N1CCC(Oc2cnccc2-c2[nH]c3cccnc3c2-c2ccccc2)C1 (racemic) [Example 118, 2-(3-{[(3RS)-1-(ethenesulfonyl)pyrrolidin-3-yl]oxy}pyridin-4-yl)-3-phenyl-1H-pyrrolo[3,2-b]pyridine] | 16.8 | 79.9 | 723
C=CC(=O)N1C[C@@H](C)C[C@H]1COc1cnccc1-c1[nH]c2cccnc2c1-c1ccccc1 [Example 110, 1-[(2S,4S)-4-methyl-2-({[4-(3-phenyl-1H-pyrrolo[3,2-b]pyridin-2-yl)pyridin-3-yl]oxy}methyl)pyrrolidin-1-yl]prop-2-en-1-one] | 1.27 | 5.97 | 37.5
CN(C)C/C=C/C(=O)N1CCC[C@H]1COc1cnccc1-c1[nH]c2cccnc2c1-c1cc(Cl)ccc1F [Example 97, (2E)-1-{(2S)-2-[({4-[3-(5-chloro-2-fluorophenyl)-1H-pyrrolo[3,2-b]pyridin-2-yl]pyridin-3-yl}oxy)methyl]pyrrolidin-1-yl}-4-(dimethylamino)but-2-en-1-one] | 2.03 | 8.62 | 179
C#CC(=O)N1CCC(Oc2cnccc2-c2[nH]c3cccnc3c2-c2cccc(Cl)c2)C1 (racemic) [Example 120, 1-[(3RS)-3-({4-[3-(3-chlorophenyl)-1H-pyrrolo[3,2-b]pyridin-2-yl]pyridin-3-yl}oxy)pyrrolidin-1-yl]prop-2-yn-1-one] | 38.5 | 98.7 | 1190
CN(C)C/C=C/C(=O)N1CCOCC1COc1cnccc1-c1[nH]c2cccnc2c1-c1cc(Cl)ccc1F (stereo not drawn) [Example 152, (2E)-1-{3-[({4-[3-(5-chloro-2-fluorophenyl)-1H-pyrrolo[3,2-b]pyridin-2-yl]pyridin-3-yl}oxy)methyl]morpholin-4-yl}-4-(dimethylamino)but-2-en-1-one] | 164 | 353 | 1880
C#CC(=O)N1CCC(Oc2cnccc2-c2[nH]c3cccnc3c2-c2ccccc2)C1 (racemic) [Example 117, 1-[(3RS)-3-{[4-(3-phenyl-1H-pyrrolo[3,2-b]pyridin-2-yl)pyridin-3-yl]oxy}pyrrolidin-1-yl]prop-2-yn-1-one] | 90.2 | 296 | 4430
C=CC(=O)N(C)CCOc1cnccc1-c1[nH]c2cccnc2c1-c1cc(F)ccc1F [Example 46, N-[2-({4-[3-(2,5-difluorophenyl)-1H-pyrrolo[3,2-b]pyridin-2-yl]pyridin-3-yl}oxy)ethyl]-N-methylprop-2-enamide] | 27.3 | 60.5 | 1150
C#CC(=O)N1CCC(Oc2cnccc2-c2[nH]c3cccnc3c2-c2cc(C)ccc2F)C1 (racemic) [Example 125, 1-[(3RS)-3-({4-[3-(2-fluoro-5-methylphenyl)-1H-pyrrolo[3,2-b]pyridin-2-yl]pyridin-3-yl}oxy)pyrrolidin-1-yl]prop-2-yn-1-one] | 80.8 | 219 | 1030
CC#CC(=O)N1CCC[C@H]1COc1cnccc1-c1[nH]c2cccnc2c1-c1ccccc1 [Example 94, 1-[(2S)-2-({[4-(3-phenyl-1H-pyrrolo[3,2-b]pyridin-2-yl)pyridin-3-yl]oxy}methyl)pyrrolidin-1-yl]but-2-yn-1-one] | 365 | > 1630 | 2440
C#CC(=O)N1CCC[C@H]1COc1cnccc1-c1[nH]c2cccnc2c1-c1ccccc1 [Example 93, 1-[(2S)-2-({[4-(3-phenyl-1H-pyrrolo[3,2-b]pyridin-2-yl)pyridin-3-yl]oxy}methyl)pyrrolidin-1-yl]prop-2-yn-1-one] | 1.02 | 3.14 | 55.3
C=CS(=O)(=O)N(C)CCOc1cnccc1-c1[nH]c2cccnc2c1-c1cc(OC)ccc1F [Example 73, N-[2-({4-[3-(2-fluoro-5-methoxyphenyl)-1H-pyrrolo[3,2-b]pyridin-2-yl]pyridin-3-yl}oxy)ethyl]-N-methylethenesulfonamide] | 8.7 | 27.9 | 555
C=CS(=O)(=O)N(C)CCOc1cnccc1-c1[nH]c2cccnc2c1-c1ccc2ccsc2c1 [Example 62, N-[2-({4-[3-(1-benzothiophen-6-yl)-1H-pyrrolo[3,2-b]pyridin-2-yl]pyridin-3-yl}oxy)ethyl]-N-methylethenesulfonamide] | 1.14 | 3.3 | 326
C=CC(=O)N(C)CCOc1cnccc1-c1[nH]c2cccnc2c1-c1cc(C)cc(F)c1 [Example 50, N-[2-({4-[3-(3-fluoro-5-methylphenyl)-1H-pyrrolo[3,2-b]pyridin-2-yl]pyridin-3-yl}oxy)ethyl]-N-methylprop-2-enamide] | 63.7 | 131 | 1770
CN(C)C/C=C/C(=O)N1CCC[C@H]1COc1cnccc1-c1[nH]c2cccnc2c1-c1cccc(C(F)(F)F)c1 [Example 96, (2E)-4-(dimethylamino)-1-[(2S)-2-{[(4-{3-[3-(trifluoromethyl)phenyl]-1H-pyrrolo[3,2-b]pyridin-2-yl}pyridin-3-yl)oxy]methyl}pyrrolidin-1-yl]but-2-en-1-one] | 3.45 | 22.1 | 373
C=CC(=O)N1CC[C@H]1COc1cnccc1-c1[nH]c2cccnc2c1-c1ccccc1 (single isomer, unassigned) [Example 139] | 120 | 492 | 2520
C=CS(=O)(=O)N(C)CCOc1cnccc1-c1[nH]c2cccnc2c1-c1cccc(C(C)C)c1 [Example 70, N-methyl-N-{2-[(4-{3-[3-(propan-2-yl)phenyl]-1H-pyrrolo[3,2-b]pyridin-2-yl}pyridin-3-yl)oxy]ethyl}ethenesulfonamide] | 5.33 | 46.6 | 749
CN(C)C/C=C/C(=O)N1CCC[C@H]1COc1cnccc1-c1[nH]c2cccnc2c1-c1ccc(F)c(OC(F)(F)F)c1 [Example 107, (2E)-4-(dimethylamino)-1-[(2S)-2-{[(4-{3-[4-fluoro-3-(trifluoromethoxy)phenyl]-1H-pyrrolo[3,2-b]pyridin-2-yl}pyridin-3-yl)oxy]methyl}pyrrolidin-1-yl]but-2-en-1-one] | 94.5 | 342 | 1510
C=CC(=O)N(C)CCOc1cnccc1-c1[nH]c2cccnc2c1-c1cccc(OC(F)(F)F)c1 [Example 58, N-methyl-N-{2-[(4-{3-[3-(trifluoromethoxy)phenyl]-1H-pyrrolo[3,2-b]pyridin-2-yl}pyridin-3-yl)oxy]ethyl}prop-2-enamide] | 249 | 1160 | 6280
C=CC(=O)N1CCC1(C)COc1cnccc1-c1[nH]c2cccnc2c1-c1cccc(C(F)(F)F)c1 (stereo not drawn) [Example 147, 1-[(2IRS)-2-methyl-2-{[(4-{3-[3-(trifluoromethyl)phenyl]-1H-pyrrolo[3,2-b]pyridin-2-yl}pyridin-3-yl)oxy]methyl}azetidin-1-yl]prop-2-en-1-one] | 699 | 3680 | 6530
C=CC(=O)N1CCC[C@H]1COc1cnccc1-c1[nH]c2cccnc2c1-c1cccc(CC)c1 [Example 78, 1-{(2S)-2-[({4-[3-(3-ethylphenyl)-1H-pyrrolo[3,2-b]pyridin-2-yl]pyridin-3-yl}oxy)methyl]pyrrolidin-1-yl}prop-2-en-1-one] | 1.04 | 2.92 | 80.2
